# Where “and” joins values, the source holds several entries; their conditions need not be identical. Equal entries are not always repeated.
# System: 186277-243-T-J2-PDC spheroids with HUVEC/MSC, viability
# Experiment: Anticancer human tumor 186277-243-T-J2-PDC patient-derived colon adenocarcinoma cell line growth inhibition [CLK]
# Settings: for viability, T/C: stronger effect = lower value
# From the text: A high-throughput screen of multi-cell type tumor spheroids was designed to identify active combinations of […] and targeted small molecules. Complex spheroids include a stromal component modeled by human endothelial cells (HUVEC) and fibroblasts modeled by human mesenchymal stem cells (MSCs). The concentration ranges selected for each drug and investigational agent were based upon clinically achievable concentrations if the clinical Cmax of the agent was known.
# Compounds. The drugs and investigational agents: cirtuvivint (SM08502; NSC835563), CC-671 (NSC850746), vemurafenib (NSC761431), tapotoclax (NSC804041), sotorasib (NSC818433), adagrasib (NSC831453), MRTX-1133 (NSC836407), BAY2416964 (NSC825713), copanlisib (NSC816437), inavolisib (NSC800729), abemaciclib (NSC768073), osimertinib (NSC779217), entinostat (NSC756642), eltanexor (KPT-8602, NSC794443), venetoclax (NSC766270), ceralasertib (NSC777638), bortezomib (NSC756655), olaparib (NSC753686), talazoparib (NSC767125), alisertib (NSC759677), peposertib (NSC802822), gemcitabine (NSC613327), 5-fluorouracil (NSC19893), SN-38 (NSC673596), oxaliplatin (NSC266046), paclitaxel (NSC125973), and doxorubicin (NSC123127), were obtained from the National Cancer Institute (NCI) Developmental Therapeutics Program Chemical Repository. The FDA-approved anticancer drug set is available from the Developmental Therapeutics Program at https://dtp.cancer.gov/organization/dscb/obtaining/available plates.htm. […] The stock solutions were prepared in dimethyl sulfoxide (DMSO, Sigma-Aldrich, St. Louis, MO, cat. D2650), except for the platinum complexes which were prepared in saline (Quality Biological, Gaithersburg, MD, cat. 114-055-101), at 800-fold the tested concentration and stored at -70 degrees C prior to their use. All drugs and investigational agents were tested over a range starting from a high concentration at or near the clinical Cmax and decreasing in half-log increments. If the clinical Cmax for an agent had not been determined, the highest concentration tested was 10 microM.
# Cell Culture. All cells were maintained in an incubator at 37 degrees C and 5% CO2 with 95% humidity. The PDC lines were cultured according to standard operating procedures established by the NCI PDMR. Briefly, all PDCs were thawed and cultured in Matrigel-coated flasks prepared with a working solution of 1X Ham's F-12 nutrient mix, without supplementation (Invitrogen, Waltham, MA, cat. 11765054), 100 U/mL penicillin-streptomycin (Invitrogen, cat. 15140122), and 2.5% Matrigel (Corning Inc., Corning, NY, cat. 354248) for the first three passages. The 947758-054-R-J2-PDC line was cultured in 6B/Colon 1A media, which includes advanced DMEM/F-12 (Thermo Fisher Scientific, cat. 12634028), 10 mM HEPES (Thermo Fisher Scientific, cat. 15630080), 1X GlutaMAX supplement (Thermo Fisher Scientific, cat. 35050061), 0.1 mg/mL primocin (InvivoGen, cat. ant-pm-2), 10% defined fetal bovine serum, heat inactivated (HyClone Laboratories Inc., cat. SH30070.03HI), 1.25 mM N-Acetyl-L-cysteine (Sigma-Aldrich, cat. A9165), 10 mM nicotinamide (Sigma-Aldrich, cat. N0636), 1X B-27 supplement (Thermo Fisher Scientific, cat. 17504044), 1X N-2 supplement (Thermo Fisher Scientific, cat. 17502048), and 10 microM Y-27632 dihydrochloride (Tocris Bioscience, cat. 1254). The 876862-298-R-J1-PDC was cultured in 6E media, which includes all 6B/Colon 1A media components plus 50% L-WRN conditioned media (ATCC, cat. CRL-3276), 50 ng/mL recombinant human EGF recombinant protein (hEGF; Thermo Fisher Scientific, cat. PHG0311), 10 ng/mL recombinant human fibroblast growth factor 10 (hGFG-10; PeproTech, cat. 100-26), 1 ng/mL recombinant human fibroblast growth factor 2 (hFGF-2; PeproTech, cat. 100-18B), and 1 µM prostaglandin E2 (PGE2; Tocris, cat. 2296). The 227483-062-R1-J1-PDC line was cultured in Panc media, containing all 6E components except hFGF-2, with the addition of 500 nM SB-431542 (Selleckchem, cat. S1067) and 10 nM gastrin (Tocris, cat. 3006). […]
# [1] = curve of first compound, second compound 0.0316 µM
# [2] = curve of first compound, second compound 0.1 µM
# [3] = curve of first compound, second compound 0.316 µM
# [4] = curve of first compound, second compound 1 µM
# [5] = curve of first compound, second compound 3.16 µM
# [6] = curve of first compound, second compound 10 µM
# [7] = second compound 0.0316 µM, first compound 0.00949 µM
# [8] = second compound 0.0316 µM, first compound 0.03 µM
# [9] = second compound 0.0316 µM, first compound 0.0949 µM
# [10] = second compound 0.0316 µM, first compound 0.3 µM
# [11] = second compound 0.1 µM, first compound 0.00949 µM
# [12] = second compound 0.1 µM, first compound 0.03 µM
# [13] = second compound 0.1 µM, first compound 0.0949 µM
# [14] = second compound 0.1 µM, first compound 0.3 µM
# [15] = second compound 0.316 µM, first compound 0.00949 µM
# [16] = second compound 0.316 µM, first compound 0.03 µM
# [17] = second compound 0.316 µM, first compound 0.0949 µM
# [18] = second compound 0.316 µM, first compound 0.3 µM
# [19] = second compound 1 µM, first compound 0.00949 µM
# [20] = second compound 1 µM, first compound 0.03 µM
# [21] = second compound 1 µM, first compound 0.0949 µM
# [22] = second compound 1 µM, first compound 0.3 µM
# [23] = second compound 3.16 µM, first compound 0.00949 µM
# [24] = second compound 3.16 µM, first compound 0.03 µM
# [25] = second compound 3.16 µM, first compound 0.0949 µM
# [26] = second compound 3.16 µM, first compound 0.3 µM
# [27] = second compound 10 µM, first compound 0.00949 µM
# [28] = second compound 10 µM, first compound 0.03 µM
# [29] = second compound 10 µM, first compound 0.0949 µM
# [30] = second compound 10 µM, first compound 0.3 µM
# 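Further: compound exposure lasted seven days before readout.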
# 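Wherever viability, T/C is given: 100% = DMSO vehicle control wells.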
smiles,measurement,setting,value
C=CC(=O)Nc1cc(Nc2nccc(-c3cn(C)c4ccccc34)n2)c(OC)cc1N(C)CCN(C)C + CN1CCN(c2cc(C(=O)Nc3cc4cc(-c5cnn(C)c5)ccc4cn3)ccn2)CC1,IC50,[1],> 300 nM
same,IC50,[2],> 300 nM
same,IC50,[3],< 0.949 nM
same,IC50,[4],< 0.949 nM
same,IC50,[5],< 0.949 nM
same,IC50,[6],< 0.949 nM
same,"viability, T/C","second compound 0.0316 µM, first compound 0.000949 µM",92.1%
same,"viability, T/C","second compound 0.0316 µM, first compound 0.003 µM",92.6%
same,"viability, T/C",[7],90.9%
same,"viability, T/C",[8],78.2%
same,"viability, T/C",[9],83.8%
same,"viability, T/C",[10],82.2%
same,"viability, T/C","second compound 0.1 µM, first compound 0.000949 µM",87%
same,"viability, T/C","second compound 0.1 µM, first compound 0.003 µM",75.6%
same,"viability, T/C",[11],86.8%
same,"viability, T/C",[12],92.3%
same,"viability, T/C",[13],70.9%
same,"viability, T/C",[14],64%
same,"viability, T/C","second compound 0.316 µM, first compound 0.000949 µM",25.9%
same,"viability, T/C","second compound 0.316 µM, first compound 0.003 µM",26.1%
same,"viability, T/C",[15],25.2%
same,"viability, T/C",[16],21.2%
same,"viability, T/C",[17],20.8%
same,"viability, T/C",[18],14%
same,"viability, T/C","second compound 1 µM, first compound 0.000949 µM",0.45%
same,"viability, T/C","second compound 1 µM, first compound 0.003 µM",0.44%
same,"viability, T/C",[19],1.59%
same,"viability, T/C",[20],0.36%
same,"viability, T/C",[21],0.85%
same,"viability, T/C",[22],0.32%
same,"viability, T/C","second compound 3.16 µM, first compound 0.000949 µM",1.64%
same,"viability, T/C","second compound 3.16 µM, first compound 0.003 µM",1.27%
same,"viability, T/C",[23],2.11%
same,"viability, T/C",[24],0.98%
same,"viability, T/C",[25],0.87%
same,"viability, T/C",[26],0.74%
same,"viability, T/C","second compound 10 µM, first compound 0.000949 µM",0.65%
same,"viability, T/C","second compound 10 µM, first compound 0.003 µM",0.71%
same,"viability, T/C",[27],0.97%
same,"viability, T/C",[28],0.86%
same,"viability, T/C",[29],0.61%
same,"viability, T/C",[30],1.03%
NC(=O)C(=Cn1cnc(-c2cc(C(F)(F)F)cc(C(F)(F)F)c2)n1)c1cncnc1 + CNC(=O)c1ccc(Nc2nc(OC3CCCC3)c3c(-c4ccc5nc(C)oc5c4)c[nH]c3n2)c(OC)c1,IC50,[1],152 nM
same,IC50,[2],46 nM
same,IC50,[3],< 9.49 nM
same,IC50,[4],< 9.49 nM
same,IC50,[5],< 9.49 nM
same,IC50,[6],< 9.49 nM
same,"viability, T/C",[7],88.5%
same,"viability, T/C",[8],84.2%
same,"viability, T/C",[9],79.1%
same,"viability, T/C",[10],7.94%
same,"viability, T/C","second compound 0.0316 µM, first compound 0.949 µM",3.02%
same,"viability, T/C","second compound 0.0316 µM, first compound 3 µM",5.16%
same,"viability, T/C",[11],54.5%
same,"viability, T/C",[12],55.2%
same,"viability, T/C",[13],42.1%
same,"viability, T/C",[14],6.58%
same,"viability, T/C","second compound 0.1 µM, first compound 0.949 µM",3.16%
same,"viability, T/C","second compound 0.1 µM, first compound 3 µM",2.39%
same,"viability, T/C",[15],36.4%
same,"viability, T/C",[16],37.7%
same,"viability, T/C",[17],17.6%
same,"viability, T/C",[18],2.14%
same,"viability, T/C","second compound 0.316 µM, first compound 0.949 µM",2.54%
same,"viability, T/C","second compound 0.316 µM, first compound 3 µM",1.77%
same,"viability, T/C",[19],25.6%
same,"viability, T/C",[20],24.7%
same,"viability, T/C",[21],7.44%
same,"viability, T/C",[22],2.4%
same,"viability, T/C","second compound 1 µM, first compound 0.949 µM",1.17%
same,"viability, T/C","second compound 1 µM, first compound 3 µM",2.9%
same,"viability, T/C",[23],26.8%
same,"viability, T/C",[24],24.6%
same,"viability, T/C",[25],3.89%
same,"viability, T/C",[26],0.59%
same,"viability, T/C","second compound 3.16 µM, first compound 0.949 µM",2.87%
same,"viability, T/C","second compound 3.16 µM, first compound 3 µM",3.05%
same,"viability, T/C",[27],28.3%
same,"viability, T/C",[28],24.6%
same,"viability, T/C",[29],4.11%
same,"viability, T/C",[30],4.12%
same,"viability, T/C","second compound 10 µM, first compound 0.949 µM",0.92%
same,"viability, T/C","second compound 10 µM, first compound 3 µM",1.85%
Nc1ccn(C2OC(CO)C(O)C2(F)F)c(=O)n1 (stereo unspecified),"viability, T/C",compound 0.0316 µM,15.6% and 11.9%
same,"viability, T/C",compound 0.1 µM,15.7% and 12.4%
same,"viability, T/C",compound 0.316 µM,15.3% and 12.4%
same,"viability, T/C",compound 1 µM,17.3% and 13.5%
same,"viability, T/C",compound 3.16 µM,19% and 14%
same,"viability, T/C",compound 10 µM,20.5% and 13.1%
same,IC50,curve of compound,< 31.6 nM
